Four compounds from patent publication US20050004094A1, “Cephem compounds” (priority 2003, published 2005) can be followed below.

For the experiment, the system named is Pseudomonas aeruginosa FP 1456. Put plainly: In vitro antibacterial activity, two-fold agar-plate dilution method (MIC). It counts as cell-based. The conditions noted are these: incubation at 37° C. for 20 hours; for MIC: FP1456, heart infusion agar, read-out: MIC (minimal inhibitory concentration). The protocol:
In vitro antibacterial activity was determined by the two-fold agar-plate dilution method as described below. One loopful of an overnight culture of each test strain in Trypticase-soy broth (10^6 viable cells per ml) was streaked on heart infusion agar (HI-agar) containing graded concentrations of representative test compound, and the minimal inhibitory concentration (MIC) was expressed in μg/ml after incubation at 37° C. for 20 hours.

In brackets after ≈: the same amount, converted by molar mass.

As to `CC(C)(O/N=C(\C(=O)N[C@@H]1C(=O)N2C(C(=O)[O-])=C(C[n+]3ccccc3)CS[C@H]12)c1csc(N)n1)C(=O)O` [Ceftazidime, reference compound], the MIC came to 32 µg/mL (≈ 58.5 µM).
Same read-out and setting: to `Cn1c(CCN)cc[n+]1CC1=C(C(=O)O)N2C(=O)[C@@H](NC(=O)/C(=N\OC(C)(C)C(=O)O)c3nsc(N)n3)[C@H]2SC1.O=S(=O)([O-])O` [Compound (a), 3-[3-(2-aminoethyl)-2-methyl-1-pyrazolio]methyl-7β-[(Z)-2-(5-amino-1,2,4-thiadiazol-3-yl)-2-(1-carboxy-1-methylethoxyimino)acetamido]-3-cephem-4-carboxylic acid hydrogen sulfate] belongs 1 µg/mL.
Still for that read-out and setting: to `Cn1c(CCNC(=N)N)cc[n+]1CC1=C(C(=O)[O-])N2C(=O)[C@@H](NC(=O)/C(=N\OC(C)(C)C(=O)O)c3nsc(N)n3)[C@H]2SC1` [Compound (b), 3-{[3-(2-{[amino(imino)methyl]amino}ethyl)-2-methyl-1-pyrazolio]methyl}-7β-({(2Z)-2-(5-amino-1,2,4-thiadiazol-3-yl)-2-[(1-carboxy-1-methylethoxy)imino]ethanoyl}-amino)-3-cephem-4-carboxylate] belongs 2 µg/mL (≈ 3.15 µM).
As for `Cn1cc(CCN)c[n+]1CC1=C(C(=O)[O-])N2C(=O)[C@@H](NC(=O)/C(=N\OC(C)(C)C(=O)O)c3nsc(N)n3)[C@H]2SC1` [Compound (c), 3-{[4-(2-aminoethyl)-2-methyl-1-pyrazolio]methyl}-7β-({(2Z)-2-(5-amino-1,2,4-thiadiazol-3-yl)-2-[(l-carboxy-1-methylethoxy)imino]ethanoyl}amino)-3-cephem-4-carboxylate], the “MIC (minimal inhibitory concentration)” value (heart infusion agar) stood at 2 µg/mL (≈ 3.37 µM).
